PubChem BioAssay (NCI)
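96-well plates; 48 h exposure; 5 concentrations. Endpoints by linear interpolation between flanking doses. Not reached: highest tested concentration assigned. TGI: total growth inhibition.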

What was measured:
Experiment in all cases: NCI tumour cell line growth inhibition, 48 h
RPMI-8226 leukemia = test system: RPMI-8226 leukemia
CAKI-1 renal = test system: CAKI-1 renal
SNB-75 CNS = test system: SNB-75 CNS
HOP-92 NSCLC = test system: HOP-92 NSCLC
NCI-H226 lung = test system: NCI-H226 lung
HCT-15 colon = test system: HCT-15 colon
NCI/ADR-RES ovarian = test system: NCI/ADR-RES ovarian
786-0 renal = test system: 786-0 renal
MALME-3M melanoma = test system: MALME-3M melanoma
SF-295 CNS = test system: SF-295 CNS
UO-31 renal = test system: UO-31 renal
SF-539 CNS = test system: SF-539 CNS
K-562 leukemia = test system: K-562 leukemia
HCC-2998 colon = test system: HCC-2998 colon
HCT-116 colon = test system: HCT-116 colon
SK-MEL-28 melanoma = test system: SK-MEL-28 melanoma
SNB-19 CNS = test system: SNB-19 CNS
HOP-62 NSCLC = test system: HOP-62 NSCLC
HT29 colon = test system: HT29 colon
SW-620 colon = test system: SW-620 colon
OVCAR-3 ovarian = test system: OVCAR-3 ovarian
SR leukemia = test system: SR leukemia
T-47D breast = test system: T-47D breast
OVCAR-5 ovarian = test system: OVCAR-5 ovarian
A498 renal = test system: A498 renal
EKVX NSCLC = test system: EKVX NSCLC
RXF 393 renal = test system: RXF 393 renal
DU-145 prostate = test system: DU-145 prostate
SN12C renal = test system: SN12C renal
MOLT-4 leukemia = test system: MOLT-4 leukemia
A549 NSCLC = test system: A549 NSCLC
TK-10 renal = test system: TK-10 renal
U251 CNS = test system: U251 CNS
MDA-N = test system: MDA-N
SF-268 CNS = test system: SF-268 CNS
KM12 colon = test system: KM12 colon
NCI-H522 lung = test system: NCI-H522 lung
MDA-MB-231 breast = test system: MDA-MB-231 breast
BT-549 breast = test system: BT-549 breast
UACC-257 melanoma = test system: UACC-257 melanoma
ACHN renal = test system: ACHN renal
MDA-MB-435 = test system: MDA-MB-435
MCF7 breast = test system: MCF7 breast
OVCAR-4 ovarian = test system: OVCAR-4 ovarian
PC-3 prostate = test system: PC-3 prostate
CCRF-CEM leukemia = test system: CCRF-CEM leukemia
HS 578T breast = test system: HS 578T breast
SK-MEL-5 melanoma = test system: SK-MEL-5 melanoma
COLO 205 colon = test system: COLO 205 colon
M14 melanoma = test system: M14 melanoma
LOX IMVI melanoma = test system: LOX IMVI melanoma
OVCAR-8 ovarian = test system: OVCAR-8 ovarian
IGROV1 ovarian = test system: IGROV1 ovarian
HL-60(TB) leukemia = test system: HL-60(TB) leukemia
NCI-H460 lung = test system: NCI-H460 lung
NCI-H23 lung = test system: NCI-H23 lung
SK-OV-3 ovarian = test system: SK-OV-3 ovarian
UACC-62 melanoma = test system: UACC-62 melanoma

For `CC[C@@H]1CC[C@@H]2[C@H](CC[C@]3(C)[C@@H](O[N+](=O)[O-])CC[C@@H]23)[C@H]1C(C)=O`, which TGI (RPMI-8226 leukemia) is on record?
The TGI was 49.9 µM.

What about the TGI (CAKI-1 renal) of the same molecule?
The TGI was > 100 µM.

What about the TGI (SNB-75 CNS) of the same molecule?
The TGI was > 100 µM.

And the TGI (HOP-92 NSCLC)?
Its TGI is 70.2 µM.

And the TGI (NCI-H226 lung)?
The TGI was > 100 µM.

And the TGI (HCT-15 colon)?
The TGI was > 100 µM.

And the TGI (NCI/ADR-RES ovarian)?
The TGI was > 100 µM.

What about the TGI (786-0 renal) of the same molecule?
Its TGI is > 100 µM.

And the TGI (MALME-3M melanoma)?
The TGI was 65.3 µM.

What about the TGI (SF-295 CNS) of the same molecule?
Its TGI is > 100 µM.

What about the TGI (UO-31 renal) of the same molecule?
Its TGI is > 100 µM.

And the TGI (SF-539 CNS)?
The TGI was > 100 µM.

And the TGI (K-562 leukemia)?
The TGI was > 100 µM.

And the TGI (HCC-2998 colon)?
The TGI was > 100 µM.

And the TGI (HCT-116 colon)?
The TGI was > 100 µM.

What about the TGI (SK-MEL-28 melanoma) of the same molecule?
Its TGI is > 100 µM.

What about the TGI (SNB-19 CNS) of the same molecule?
Its TGI is > 100 µM.

What about the TGI (HOP-62 NSCLC) of the same molecule?
The TGI was > 100 µM.

And the TGI (HT29 colon)?
Its TGI is 33.4 µM.

And the TGI (SW-620 colon)?
Its TGI is > 100 µM.

What about the TGI (OVCAR-3 ovarian) of the same molecule?
The TGI was > 100 µM.

What about the TGI (SR leukemia) of the same molecule?
Its TGI is > 100 µM.

What about the TGI (T-47D breast) of the same molecule?
The TGI was 96.4 µM.

What about the TGI (OVCAR-5 ovarian) of the same molecule?
The TGI was > 100 µM.

And the TGI (A498 renal)?
Its TGI is 95.9 µM.

What about the TGI (EKVX NSCLC) of the same molecule?
Its TGI is 80.9 µM.

What about the TGI (RXF 393 renal) of the same molecule?
Its TGI is > 100 µM.

And the TGI (DU-145 prostate)?
The TGI was > 100 µM.

What about the TGI (SN12C renal) of the same molecule?
Its TGI is > 100 µM.

And the TGI (MOLT-4 leukemia)?
Its TGI is > 100 µM.

And the TGI (A549 NSCLC)?
Its TGI is > 100 µM.

And the TGI (TK-10 renal)?
Its TGI is > 100 µM.

And the TGI (U251 CNS)?
Its TGI is > 100 µM.

And the TGI (MDA-N)?
Its TGI is > 100 µM.

And the TGI (SF-268 CNS)?
Its TGI is > 100 µM.

What about the TGI (KM12 colon) of the same molecule?
Its TGI is 80.7 µM.

And the TGI (NCI-H522 lung)?
The TGI was 80.9 µM.

What about the TGI (MDA-MB-231 breast) of the same molecule?
Its TGI is 75.1 µM.

What about the TGI (BT-549 breast) of the same molecule?
Its TGI is > 100 µM.

And the TGI (UACC-257 melanoma)?
Its TGI is 55 µM.

And the TGI (ACHN renal)?
The TGI was > 100 µM.

What about the TGI (MDA-MB-435) of the same molecule?
The TGI was > 100 µM.

What about the TGI (MCF7 breast) of the same molecule?
The TGI was 83.1 µM.

And the TGI (OVCAR-4 ovarian)?
Its TGI is > 100 µM.

What about the TGI (PC-3 prostate) of the same molecule?
The TGI was 74.9 µM.

And the TGI (CCRF-CEM leukemia)?
Its TGI is > 100 µM.

And the TGI (HS 578T breast)?
Its TGI is > 100 µM.

What about the TGI (SK-MEL-5 melanoma) of the same molecule?
Its TGI is 40.4 µM.

And the TGI (COLO 205 colon)?
Its TGI is 24.4 µM.

What about the TGI (M14 melanoma) of the same molecule?
Its TGI is > 100 µM.

What about the TGI (LOX IMVI melanoma) of the same molecule?
Its TGI is 39.5 µM.

What about the TGI (OVCAR-8 ovarian) of the same molecule?
The TGI was > 100 µM.

What about the TGI (IGROV1 ovarian) of the same molecule?
The TGI was > 100 µM.

What about the TGI (HL-60(TB) leukemia) of the same molecule?
The TGI was 37 µM.

What about the TGI (NCI-H460 lung) of the same molecule?
Its TGI is 76 µM.

And the TGI (NCI-H23 lung)?
The TGI was > 100 µM.

Which TGI (CAKI-1 renal) does the source give for `O=c1[nH]c2ccccc2c2oc3ccccc3c12` here?
The TGI was > 100 µM.

What about the TGI (SNB-75 CNS) of the same molecule?
The TGI was 32.6 µM.

What about the TGI (HOP-92 NSCLC) of the same molecule?
The TGI was > 100 µM.

What about the TGI (NCI-H226 lung) of the same molecule?
Its TGI is > 100 µM.

And the TGI (HCT-15 colon)?
The TGI was > 100 µM.

And the TGI (NCI/ADR-RES ovarian)?
Its TGI is > 100 µM.

What about the TGI (MALME-3M melanoma) of the same molecule?
The TGI was > 100 µM.

What about the TGI (SF-295 CNS) of the same molecule?
The TGI was > 100 µM.

What about the TGI (UO-31 renal) of the same molecule?
The TGI was > 100 µM.

And the TGI (SF-539 CNS)?
The TGI was > 100 µM.

And the TGI (K-562 leukemia)?
The TGI was > 100 µM.

And the TGI (HCC-2998 colon)?
Its TGI is > 100 µM.

What about the TGI (SK-MEL-28 melanoma) of the same molecule?
Its TGI is > 100 µM.

What about the TGI (SNB-19 CNS) of the same molecule?
The TGI was > 100 µM.

And the TGI (HOP-62 NSCLC)?
The TGI was > 100 µM.

What about the TGI (HT29 colon) of the same molecule?
Its TGI is > 100 µM.

And the TGI (SW-620 colon)?
The TGI was > 100 µM.

And the TGI (OVCAR-3 ovarian)?
The TGI was > 100 µM.

What about the TGI (SR leukemia) of the same molecule?
The TGI was > 100 µM.

And the TGI (T-47D breast)?
The TGI was > 100 µM.

What about the TGI (A498 renal) of the same molecule?
The TGI was > 100 µM.

What about the TGI (EKVX NSCLC) of the same molecule?
The TGI was > 100 µM.

And the TGI (RXF 393 renal)?
Its TGI is > 100 µM.

What about the TGI (SK-OV-3 ovarian) of the same molecule?
The TGI was > 100 µM.

What about the TGI (UACC-62 melanoma) of the same molecule?
The TGI was > 100 µM.

And the TGI (DU-145 prostate)?
The TGI was > 100 µM.

And the TGI (SN12C renal)?
The TGI was > 100 µM.

And the TGI (MOLT-4 leukemia)?
Its TGI is > 100 µM.

And the TGI (A549 NSCLC)?
Its TGI is > 100 µM.

And the TGI (TK-10 renal)?
The TGI was > 100 µM.

And the TGI (U251 CNS)?
Its TGI is > 100 µM.

And the TGI (MDA-N)?
The TGI was > 100 µM.

What about the TGI (SF-268 CNS) of the same molecule?
Its TGI is > 100 µM.

What about the TGI (KM12 colon) of the same molecule?
The TGI was > 100 µM.

And the TGI (NCI-H522 lung)?
Its TGI is > 100 µM.

What about the TGI (MDA-MB-231 breast) of the same molecule?
The TGI was > 100 µM.

And the TGI (BT-549 breast)?
The TGI was > 100 µM.

And the TGI (UACC-257 melanoma)?
Its TGI is > 100 µM.

What about the TGI (ACHN renal) of the same molecule?
Its TGI is > 100 µM.

And the TGI (MDA-MB-435)?
Its TGI is > 100 µM.

What about the TGI (MCF7 breast) of the same molecule?
The TGI was > 100 µM.

And the TGI (OVCAR-4 ovarian)?
Its TGI is > 100 µM.

What about the TGI (PC-3 prostate) of the same molecule?
Its TGI is > 100 µM.

And the TGI (CCRF-CEM leukemia)?
The TGI was > 100 µM.

What about the TGI (HS 578T breast) of the same molecule?
Its TGI is > 100 µM.

And the TGI (SK-MEL-5 melanoma)?
Its TGI is > 100 µM.

And the TGI (COLO 205 colon)?
Its TGI is > 100 µM.

And the TGI (M14 melanoma)?
The TGI was > 100 µM.

And the TGI (OVCAR-8 ovarian)?
Its TGI is > 100 µM.

What about the TGI (IGROV1 ovarian) of the same molecule?
The TGI was > 100 µM.

And the TGI (NCI-H460 lung)?
Its TGI is > 100 µM.

And the TGI (NCI-H23 lung)?
Its TGI is > 100 µM.
